Results as given in PMC8333620, “Novel Tl(III) complexes containing pyridine-2,6-dicarboxylate derivatives with selective anticancer activity through inducing mitochondria-mediated apoptosis in A375 cells” (Scientific Reports, 2021).
Like-named read-outs stand apart in the source and are kept apart here.

How the values were obtained:
[1] = MTT cytotoxicity assay, HFF; assay type: cell-based, human; conditions: human
Description: (§1) In this study, A375 (a human melanoma), HT29 (a human colon adenocarcinoma), and HFF (a human foreskin fibroblast) cell lines were provided from the Pasteur Institute (Iran). […] 10 mM stock solutions of compounds were prepared in DMSO and diluted in a fresh medium for use. The final concentration of DMSO never exceeded 0.1% (v/v). […] Then the medium was replaced with the respective medium containing ligands or Tl(III) complexes at different concentrations and incubated for 48 h. 10 μL of MTT was added and the medium was removed after 4 h of incubation. Finally, the violet crystal was solubilized in 100 μL DMSO and the absorbance was measured at 570 nm. IC50 value was measured by the standard method. The evaluations were carried out in triplicate[21],[23].

[2] = tested on: HT29 (a human colon adenocarcinoma) cell line; assay: MTT cytotoxicity assay, HT29; assay type: cell-based; conditions: for IC50: read-out: Cytotoxicity (IC50 ± SEM) against HT29
Description: as §1

[3] = tested on: A375 (a human melanoma) cell line; assay: MTT cytotoxicity assay, A375; assay type: cell-based; conditions: for IC50: read-out: Cytotoxicity (IC50 ± SEM) against A375; for Viability inhibition, A375: concentration not given
Description: as §1

[4] = tested on: HFF (a human foreskin fibroblast) cell line; assay: MTT cytotoxicity assay, HFF; assay type: cell-based; conditions: MTT, 48 h; read-out: Cytotoxicity (IC50 ± SEM) against HFF
Description: as §1

[5] = Cyclic voltammetry of the complexes; assay type: physicochemical; conditions: versus Ag/AgCl, KCl 0.1 M, GCE, scan rate 50 V/s; for formal potential E0': 4 × 10^–3 mol/dm^3 in H2O; for EA (anodic peak potential) / EC (cathodic peak potential): H2O
Excerpt: The electrochemical behavior of the complexes and also their ligands was studied by the cyclic voltammograms in the potential range of + 1.5 to –1.5 V and a scan rate of 50 Vs^–1. […] Redox couples at E^0ˊ 0.109, –0.051, and 0.244 V were obtained for C1, C2, and C3, respectively. The electrochemical oxidation of all three complexes seems be a one-stage process which includes irreversible couples with EC = –0.363 V, EA = 0.472 V for C1, EC = –0.271 V, EA = 0.220 V for C2 and EC = –0.337 V, EA = 0.581 V for C3. The peaks can be interpreted according to the Tl(III)/Tl(I) redox system for complexes. […] Therefore, redox couples are related to only the metal centers in complexes[27],[28].
Figure 4 Cyclic voltammogram of complexes c = 4 × 10^–3 mol/dm^3 in H2O medium, KCl (0.1 M) at GCE, scan rate 50 V/s.
Pyridine-2,6-dicarboxylic acid, 4-hydroxy-pyridine-2,6-dicarboxylic acid, 2-aminobenzimidazole, 4-aminopyridine, and thallium(III) nitrate trihydrate were purchased from the commercial sources and were used as received. The solvents were distilled for all synthetic works. Melting points were obtained on an Electrothermal IA-9100 apparatus. The FT-IR spectra were recorded on a Bruker Vector 22 FT-IR spectrometer using KBr pellets. Electronic spectra were recorded on Specord 210, Analytik Jena spectrophotometer in the range of 200–900 nm at room temperature. The ^1HNMR spectra were obtained from Bruker Ultrashield 400 spectrometer. Microanalyses (C, H, N) were measured with a Perkin-Elmer 2004(II) elemental analyzer. Electrochemical experiments were performed using a µAUTOLAB modular electrochemical system (ECO Chemie, Utrecht, the Netherlands) equipped with a PGSTAT type III module driven by GPES software in conjunction with a conventional three-electrode system an Ag/AgCl/3 M KCl and platinum wire as reference and counter electrode respectively and a GC as the working electrode.

procaspase-9 = assay: Western blot, procaspase-9 in A375 cells; assay type: cell-based, human; conditions: A375, IC50 concentrations, 24 h, densitometry
Description: (§2) After incubation with C1 and C3 at IC50 concentrations for 24 h, A375 cells were harvested and lysed in 150 μL of lysis buffer (149 μL RIPA and 1 μL PMSF), and then placed on ice for 15 min. Total proteins were extracted by centrifuging the cell sample at 10,000 rpm and 4 °C for 10 min. Then about 50 μg of purified proteins were mixed with an equal volume of electrophoresis sample buffer, and the mixture was heated for 10 min. Meanwhile, the equal protein content from the control cells was prepared in the same way. The cell sample (10 μL) was loaded onto 10% SDS-PAGE gels and then transferred onto a microporous polyvinylidene difluoride (PVDF) membrane. The membrane was blocked with 5% BSA in TBST buffer for more than 2 h. After the removal of TBST buffer, membranes were incubated with an appropriate dilution of specific primary antibodies in TBST overnight at 4 °C and then washed with TBST three times. The membranes were incubated with secondary antibodies for 1 h and washed with TBST. The immunoreactive signals were detected using an enhanced chemo-luminance kit (Pierce ECL Western Blotting Substrate) following the procedures given in the user manual[46],[63].

Bax/Bcl-2 = assay: Western blot, Bax/Bcl-2 ratio in A375 cells; assay type: cell-based, human; conditions: A375, IC50 concentrations, 24 h
Description: as §2

A375 cells [6] = assay: Apoptosis by Annexin-V/PI staining; assay type: cell-based, human; conditions: A375, IC50 concentrations, 24 h
Description: Annexin V-FITC and PI staining (Annexin V/PI) apoptosis detection kit were used for assessing the percentage of dead cells by apoptosis pathway. Briefly, A375 cells were treated with C1 and C3 at IC50 concentrations. After 24 h of incubation, cells were washed with PBS, trypsinized, centrifuged, and re-suspended in 100 μL binding buffer at a concentration of 1 × 10^6 cells/mL, then added 5 μL of annexin V-FITC conjugate (30 min), and 5 μL of Propidium Iodide (PI) to each cell suspension (20 min) in the dark. The samples were analyzed using a flow cytometer (Attune Nxt, Thermo Fisher Scientific-US), and the results were assessed using the FlowJo software.

A375 cells [7] = assay: Intracellular ROS (H2DCF-DA, flow cytometry), A375; assay type: cell-based, human; conditions: A375, IC50 concentrations, 24 h
Description: (§3) The generation of intracellular ROS was evaluated by reactive oxygen species assay kit. 2 mL of A375 cells (1 × 10^6 cells/mL) were induced with C1–C3 (at IC50 concentrations) at 37 °C for 24 h, serum-free medium washed twice. Then, the cells were incubated in 2 mL of serum-free medium containing H2DCF-DA (2 μM) for 30 min at 37 °C, serum-free medium washed twice. Cells were collected and assayed by flow cytometer with excitation wavelength at 489 nm and emission wavelength at 524 nm, and ten thousand events were collected. The DCF fluorescence peak for this cell sample was evaluated and data were analyzed by FlowJo software. This test was performed as explained on HFF cells treatment to C3 (at the highest concentration)[38].

p53 = assay: Western blot, p53 in A375 cells; assay type: cell-based, human; conditions: A375, IC50 concentrations, 24 h
Description: as §2

A375 cells [8] = assay: Cell cycle analysis (PI, flow cytometry), A375; assay type: cell-based, human; conditions: A375, IC50 concentrations, 24 h; with respect to untreated control cells
Description: (§4) A375 cells were seeded in 6-well plates with 1.5 × 10^6 cells /well and treated with the C1 and C3 at IC50 concentrations for 24 h. Cells were trypsinized, collected, and fixed in ice-cold 75% ethanol at − 20 °C overnight. After centrifugation, the fixed cells were rinsed with ice-cold phosphate-buffered saline (PBS) and resuspended in 0.5 mL of PBS containing 100 μg/mL DNase-free RNase A (Thermo Fisher Scientific Biosciences GmbH, St. Leon-Rot, Germany), 50 μg/mL propidium iodide (PI; Sigma Aldrich) in the dark for 30 min. The distribution of the cells in different phases of the cell cycle was determined using flow cytometry (Attune Nxt, Thermo Fisher Scientific-US) and FlowJo software v10.6.1 (https://www.flowjo.com/solutions/flowjo/downloads) was used to analyze the data. This test was performed as explained on HFF cells treatment to C3 (at the highest concentration)[62].

A375 cells [9] = assay: Mitochondrial membrane potential assay (JC-1), A375; assay type: cell-based, human; conditions: A375, IC50 concentrations, JC-1, 24 h
Description: (§5) Mitochondrial membrane potential analysis was determined by fluorescent dye JC-1 staining according to the manufacturer's protocol for the JC-1 assay kit. In brief, 2 mL of A375 cells (1 × 10^5 cells/mL) were treated with IC50 concentrations of C1 and C3 in 6-well plates for […]. Cells were harvested and washed three times with PBS after 24 h of incubation. Then cells were stained with 1 mL of JC-1 stock solution (10 mg/mL). Assays were initiated by incubating A375 cells with JC-1 for 30 min at 37 °C in the dark and detected with a fluorescence microscope. This test was performed as explained on HFF cells treatment to C3 (at the highest concentration).

HFF cells [10] = assay: Mitochondrial membrane potential assay (JC-1), HFF; assay type: cell-based, human; conditions: highest concentration, JC-1, 24 h
Description: as §5

A375 cells [11] = assay: Cellular uptake of Tl (ICP-MS), A375; assay type: cell-based, human; conditions: 10 μM, 24 h
Description: A375 cells (1 × 10^7 cells) were treated with 10 μM C1–C3 and Tl(NO3)3.3H2O, respectively, for 24 h at 37 °C, 5% CO2, and 95% air. Cold PBS (phosphate buffer, pH = 7.4) was used for rinsing the cells three times after being collected. Cells were lysed in 1 M NaOH (1 mL) and diluted with 2% (v/v) HNO3 (5 mL) to determine whole-cell thallium content. The amount of thallium taken up by the cells was measured by ICP-MS. The instrument calibrates thallium using a standard solution containing 10, 50, 100, 500, and 1000 ppb thallium. This test was performed as explained on HFF cells treatment to C3[38].

HFF cells [12] = assay: Intracellular ROS (H2DCF-DA, flow cytometry), HFF; assay type: cell-based, human; conditions: highest concentration, 24 h, compared with A375
Description: as §3

HFF cells [13] = assay: Cell cycle analysis (PI, flow cytometry), HFF; assay type: cell-based, human; conditions: highest concentration, 24 h
Description: as §4

[14] = MTT, 48 h, read-out: Cytotoxicity (IC50 ± SEM) against HFF

Nc1nc2ccccc2[nH]1 [2-ab, 2-aminobenzimidazole]
IC50 at 48 h [1]: > 500 µM
IC50 ([2]; Homo sapiens, HT-29, 48 h): > 500 µM
IC50 ([3]; Homo sapiens, A-375, 48 h): > 500 µM

Nc1ccncc1 [4-apy, 4-aminopyridine]
IC50 [1, 14]: > 500 µM
IC50 ([2]; Homo sapiens, HT-29, MTT, 48 h): > 500 µM
IC50 ([3]; Homo sapiens, A-375, MTT, 48 h): 491.9 ± 1.56 µM

O=C1[O][Pt]2([NH][C@@H]3CCCC[C@H]3[NH]2)[O]C1=O [Oxaliplatin, reference compound]
IC50 [4]: 429.2 ± 2.32 µM
IC50 ([2]; MTT, 48 h): 323.1 ± 2.87 µM
IC50 ([3]; MTT, 48 h): 331 ± 2.69 µM

O=C(O)c1cc(O)cc(C(=O)O)n1 [hpydcH2, 4-hydroxy-pyridine-2,6-dicarboxylic acid]
IC50 [1, 14]: > 500 µM
IC50 ([2]; Homo sapiens, HT-29, MTT, 48 h): > 500 µM
IC50 ([3]; Homo sapiens, A-375, MTT, 48 h): > 500 µM

O=C(O)c1cccc(C(=O)O)n1 [pydcH2, 2,6-Pyridinedicarboxylic acid]
IC50 at 48 h [1, 14]: > 500 µM
IC50 ([2]; Homo sapiens, HT-29, 48 h): 430.2 ± 2.09 µM
IC50 ([3]; Homo sapiens, A-375, 48 h): 442.6 ± 1.22 µM

(2-abH)2[Tl(pydc)2(H2O)2]2∙11H2O [C1]
formal potential E0' [5]: 0.109 V
EA (anodic peak potential) [5]: 0.472 V
EC (cathodic peak potential) [5]: –0.363 V
procaspase-9 level compared to control (procaspase-9): 64.12%
ratio of Bax/Bcl-2 (Bax/Bcl-2): 3.60 fold
apoptosis, more effective than vehicle control-treated (A375 cells [6]): 62.24%
early apoptosis (annexin V+/PI-, Q3) (A375 cells [6]): 14.22%
late apoptosis (annexin V+/PI+, Q2) (A375 cells [6]): 48.01%
ROS level (DCF oxidation), more effective than vehicle control-treated (A375 cells [7]): 189.9%
level of p53 (p53): significantly enhanced
rise in the cellular population of the G2-M phase (A375 cells [8]): 16.91%
mitochondrial membrane potential (MMP) in A375 cells (A375 cells [9]): MMP reduction
IC50 [4]: > 500 µM
IC50 ([2]; MTT, 48 h): 354.4 ± 0.71 µM
Viability inhibition, A375 ([3]; MTT, 48 h): 55.44%
IC50 ([3]; MTT, 48 h): 81.5 ± 1.02 µM

(2-abH)[Tl(hpydc)2(H2O)2]∙6H2O [C2]
formal potential E0' [5]: –0.051 V
EA (anodic peak potential) [5]: 0.220 V
EC (cathodic peak potential) [5]: –0.271 V
ROS level (DCF oxidation), more effective than vehicle control-treated (A375 cells [7]): 23.5%
IC50 [4]: > 500 µM
IC50 ([2]; MTT, 48 h): 486.2 ± 0.69 µM
Viability inhibition, A375 ([3]; MTT, 48 h): 35.28%
IC50 ([3]; MTT, 48 h): 421.1 ± 0.55 µM

(4-apyH)[Tl(pydc)(pydcH)2]0.5H2O [C3]
formal potential E0' [5]: 0.244 V
EA (anodic peak potential) [5]: 0.581 V
EC (cathodic peak potential) [5]: –0.337 V
procaspase-9 level compared to control (procaspase-9): 110.97%
ratio of Bax/Bcl-2 (Bax/Bcl-2): 5.25 fold
changes in MMP of HFF cells (HFF cells [10]): insignificant changes
apoptosis, more effective than vehicle control-treated (A375 cells [6]): 61.66%
early apoptosis (annexin V+/PI-, Q3) (A375 cells [6]): 11.47%
late apoptosis (annexin V+/PI+, Q2) (A375 cells [6]): 50.19%
ROS level (DCF oxidation), more effective than vehicle control-treated (A375 cells [7]): 229.4%
permeation in A375 cells relative to normal (HFF) cells (A375 cells [11]): almost two times more than normal cells
level of p53 (p53): significantly enhanced
rise in the cellular population of the G2-M phase (A375 cells [8]): 21.10%
production of ROS in HFF cells (HFF cells [12]): much less than what was produced in cancer cells of A375
effect on cell cycle distribution in HFF cells (HFF cells [13]): does not have a remarkable effect on the cellular population in none of the phases
mitochondrial membrane potential (MMP) in A375 cells (A375 cells [9]): MMP reduction
IC50 [4]: > 500 µM
Viability inhibition, HT29 ([2]; MTT, 48 h, concentration not given): 53.12%
IC50 ([2]; MTT, 48 h): 193.2 ± 1.12 µM
Viability inhibition, A375 ([3]; MTT, 48 h): 69.62%
IC50 ([3]; MTT, 48 h): 7.23 ± 0.93 µM
